Counter-ions that a name gives are not always drawn. Like-named read-outs stand apart in the source and are kept apart here.
Legend:
Assay type in all cases: cell-based
[1] = test system: A. baumannii 19606 (strain 8); experiment: MIC by broth microdilution (alone and in combination with meropenam), strain 8; conditions: Acinetobacter baumannii, compound alone
Method: (§1) Compounds of the present invention alone, meropenam (MER) alone, and as a combination with test antibiotic (meropenam) were tested for antimicrobial activity by determing minimum inhibitory concentration (MIC, mg/L) using the broth microdilution method according to the guidelines of the Clinical Laboratories and Stansards Insitute (“Methods for Dilution Antimicrobial Suscetibility Tests for Bacterial that Grow Aerobiclly”, Approved standard, […]., Clinical and Laboratories Stanards Institute (CLSI) Document M7-A8, Wayne, Pa., USA, 2009). Meropenam as a test antibiotic compound was dissolved in DMSO. Meropenam was then diluted in microbial growth medium (Mueller-Hinton Broth II, cation adjusted) resulting in a final concention range of 0.125-64 mg/L in serial two-fold dilution. In all cases the filnal DMSO concentraion was less than 0.5%. Bacteria were added to 96-well microtitre plates containing the serial two-fold dilutions of the compoumds; the final cell density was appoximately 5x10^5 colony forming units/mL (CFU/mL). Plates were incubated at 37° C. for 18-24 hours and read visually. The MIC, i.e. the lowest concentration of the test compound that inhibited visible growth of the bacteria, was recorded. The same assay conditions were used when the compounds of present invention alone, and as a combination with test meropenam antibiotic compound was tested for minmum inhibitory concentration (MIC, mg/L). Whileest meropenam was serially diluted as descrribed above, a constant concentration of the present invention of 4 µg/mL was used.
(§2) Bacterial strains that were used to evaluate the antimicrobial activity using the MIC determination included but were not limited to E. coli clinical isolate (strain 1), E. coli 8739 (strain 2), K. pneumoniae clinical isolate (strain 3), K. pneumoniae 700603 (strain 4), E. cloacae clinical isolate (strain 5), E. cloacae 700323 (strain 6), A. baumannii clinical isolate (strain 7), A. baumannii 19606 (strain 8), P. aeruginosa clinical isolate (strain 9), P. aeruginosa 9027 (strain 10).

E. coli 8739 (strain 2) = experiment: MIC by broth microdilution (alone and in combination with meropenam), strain 2; conditions: Escherichia coli, compound alone
Method: as §1, §2

[2] = test system: K. pneumoniae 700603 (strain 4); experiment: MIC by broth microdilution (alone and in combination with meropenam), strain 4; conditions: Klebsiella pneumoniae, compound alone
Method: as §1, §2

[3] = test system: K. pneumoniae clinical isolate (strain 3); experiment: MIC by broth microdilution (alone and in combination with meropenam), strain 3; conditions: Klebsiella pneumoniae, compound alone
Method: as §1, §2

[4] = test system: P. aeruginosa 9027 (strain 10); experiment: MIC by broth microdilution (alone and in combination with meropenam), strain 10; conditions: Pseudomonas aeruginosa, compound alone
Method: as §1, §2

[5] = test system: P. aeruginosa clinical isolate (strain 9); experiment: MIC by broth microdilution (alone and in combination with meropenam), strain 9; conditions: Pseudomonas aeruginosa, compound alone
Method: as §1, §2

[6] = test system: E. coli clinical isolate (strain 1); experiment: MIC by broth microdilution (alone and in combination with meropenam), strain 1; conditions: Escherichia coli, compound alone
Method: as §1, §2

[7] = test system: E. cloacae 700323 (strain 6); experiment: MIC by broth microdilution (alone and in combination with meropenam), strain 6; conditions: Enterobacter cloacae, compound alone
Method: as §1, §2

[8] = test system: A. baumannii clinical isolate (strain 7); experiment: MIC by broth microdilution (alone and in combination with meropenam), strain 7; conditions: Acinetobacter baumannii, compound alone
Method: as §1, §2

[9] = test system: E. cloacae clinical isolate (strain 5); experiment: MIC by broth microdilution (alone and in combination with meropenam), strain 5; conditions: Enterobacter cloacae, compound alone
Method: as §1, §2

[10] = read-out: MIC, antibacterial activity of example alone

Row | Compound | MIC [1, 10] | MIC (E. coli 8739 (strain 2); [10]) | MIC [2, 10] | MIC [3, 10] | MIC [4, 10] | MIC [5, 10] | MIC [6, 10] | MIC [7, 10] | MIC [8, 10] | MIC [9, 10] | MIC ([1]; read-out: MIC) | MIC (E. coli 8739 (strain 2); read-out: MIC) | MIC ([2]; read-out: MIC) | MIC ([3]; read-out: MIC) | MIC ([4]; read-out: MIC) | MIC ([5]; read-out: MIC) | MIC ([6]; read-out: MIC) | MIC ([7]; read-out: MIC) | MIC ([8]; read-out: MIC) | MIC ([9]; read-out: MIC)
1 | N=C(NC(=O)c1ccco1)[C@@H]1CC[C@@H]2CN1C(=O)N2OS(=O)(=O)O [Ex.1, (2S,5R)-2-(N-(furan-2-carbonyl)carbamimidoyl)-7-oxo-1,6-diazabicyclo[3.2.1]octan-6-yl Hydrogen Sulfate] | > 64 µg/mL | > 64 µg/mL | > 64 µg/mL | > 64 µg/mL | > 64 µg/mL | > 64 µg/mL | > 64 µg/mL | > 64 µg/mL | > 64 µg/mL | > 64 µg/mL |  |  |  |  |  |  |  |  |  | 
2 | N=C(NC(=O)c1ccc(C(F)(F)F)nc1)[C@@H]1CC[C@@H]2CN1C(=O)N2OS(=O)(=O)[O-].[Na+] [Ex.6, Sodium (2S,5R)-7-oxo-2-(N-(6-(trifluoromethyl)nicotinoyl)carbamimidoyl)-1,6-diazabicyclo[3.2.1]octan-6-yl Sulfate] | > 64 µg/mL | > 64 µg/mL | > 64 µg/mL | > 64 µg/mL | > 64 µg/mL | > 64 µg/mL | > 64 µg/mL | > 64 µg/mL | > 64 µg/mL | > 64 µg/mL |  |  |  |  |  |  |  |  |  | 
3 | N=C(NC(=O)CCc1ccccn1)[C@@H]1CC[C@@H]2CN1C(=O)N2OS(=O)(=O)[O-].[Na+] [Ex.13, Sodium (2S,5R)-7-oxo-2-(N-(3-(pyridin-2-yl)propanoyl)carbamimidoyl)-1,6-diazabicyclo[3.2.1]octan-6-yl Sulfate] | > 64 µg/mL | > 64 µg/mL | > 64 µg/mL | > 64 µg/mL | > 64 µg/mL | > 64 µg/mL | > 64 µg/mL | > 64 µg/mL | > 64 µg/mL | > 64 µg/mL |  |  |  |  |  |  |  |  |  | 
4 | N=C(NC(=O)c1nc(N)cs1)[C@@H]1CC[C@@H]2CN1C(=O)N2OS(=O)(=O)[O-].[Na+] [Ex.22, Sodium (2S,5R)-2-(N-(4-aminothiazole-2-carbonyl)carbamimidoyl)-7-oxo-1,6-diazabicyclo[3.2.1]octan-6-yl Sulfate] | > 64 µg/mL | > 64 µg/mL | > 64 µg/mL | > 64 µg/mL | > 64 µg/mL | > 64 µg/mL | > 64 µg/mL | > 64 µg/mL | > 64 µg/mL | > 64 µg/mL |  |  |  |  |  |  |  |  |  | 
5 | CN1CCC[C@@H](C(=O)NC(=N)[C@@H]2CC[C@@H]3CN2C(=O)N3OS(=O)(=O)[O-])C1.[Na+] [Ex.29, Sodium (2S,5R)-2-(N-((R)-1-methylpiperidine-3-carbonyl)carbamimidoyl)-7-oxo-1,6-diazabicyclo[3.2.1]octan-6-yl Sulfate] | > 64 µg/mL | > 64 µg/mL | > 64 µg/mL | > 64 µg/mL | > 64 µg/mL | > 64 µg/mL | > 64 µg/mL | > 64 µg/mL | > 64 µg/mL | > 64 µg/mL |  |  |  |  |  |  |  |  |  | 

Second part, the molecule after the results:

Row | MIC [1, 10] | MIC (E. coli 8739 (strain 2); [10]) | MIC [2, 10] | MIC [3, 10] | MIC [4, 10] | MIC [5, 10] | MIC [6, 10] | MIC [7, 10] | MIC [8, 10] | MIC [9, 10] | MIC ([1]; read-out: MIC) | MIC (E. coli 8739 (strain 2); read-out: MIC) | MIC ([2]; read-out: MIC) | MIC ([3]; read-out: MIC) | MIC ([4]; read-out: MIC) | MIC ([5]; read-out: MIC) | MIC ([6]; read-out: MIC) | MIC ([7]; read-out: MIC) | MIC ([8]; read-out: MIC) | MIC ([9]; read-out: MIC) | Compound
6 |  |  |  |  |  |  |  |  |  |  | > 64 µg/mL | > 64 µg/mL | > 64 µg/mL | > 64 µg/mL | > 64 µg/mL | > 64 µg/mL | > 64 µg/mL | > 64 µg/mL | > 64 µg/mL | > 64 µg/mL | N=C(NC(=O)c1ccc(C(F)(F)F)cc1)[C@@H]1CC[C@@H]2CN1C(=O)N2OS(=O)(=O)[O-].[Na+] [Ex.49, Sodium (2S,5R)-7-oxo-2-(N-(4-(trifluoromethyl)benzoyl)carbamimidoyl)-1,6-diazabicyclo[3.2.1]octan-6-yl Sulfate]
7 | > 64 µg/mL | > 64 µg/mL | > 64 µg/mL | > 64 µg/mL | > 64 µg/mL | > 64 µg/mL | > 64 µg/mL | > 64 µg/mL | > 64 µg/mL | > 64 µg/mL |  |  |  |  |  |  |  |  |  |  | CC(=O)NC1CCC(C(=O)NC(=N)[C@@H]2CC[C@@H]3CN2C(=O)N3OS(=O)(=O)[O-])CC1.[Na+] (stereo partly drawn) [Ex.40, Sodium (2S,5R)-2-(N-(4-acetamidocyclohexane-1-carbonyl)carbamimidoyl)-7-oxo-1,6-diazabicyclo[3.2.1]octan-6-yl Sulfate]
8 |  |  |  |  |  |  |  |  |  |  | > 64 µg/mL | > 64 µg/mL | > 64 µg/mL | > 64 µg/mL | > 64 µg/mL | > 64 µg/mL | > 64 µg/mL | > 64 µg/mL | > 64 µg/mL | > 64 µg/mL | N=C(N)NOCCCC(=O)NC(=N)[C@@H]1CC[C@@H]2CN1C(=O)N2OS(=O)(=O)O [Ex.47, (2S,5R)-2-(N-(4-(guanidinooxy)butanoyl)carbamimidoyl)-7-oxo-1,6-diazabicyclo[3.2.1]octan-6-yl Hydrogen Sulfate]
